Earlier results in patent publication US11980627B2, “Triple pharmaceutical composition for proteinaceous infection” (priority 2019, dated 2024).

Legend:
AD = conditions: in vivo
patients with AD = conditions: human, in vivo
AD patients = conditions: twelve months' treatment, alone or in combination
soluble amyloid protein = conditions: intravenous
soluble amyloid protein, sequence (P05067 672-711 limits assumed): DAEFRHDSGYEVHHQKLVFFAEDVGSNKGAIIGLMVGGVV

CC(=O)Nc1ccc(O)cc1 [Acetaminophen]
effects on AD (AD): not found to have beneficial effects

COc1ccc2cc([C@H](C)C(=O)O)ccc2c1 [Naproxen]
cognitive function in patients with AD (patients with AD): did not improve

CC(=O)Oc1ccccc1C(=O)O [aspirin]
effects on AD (AD): not found to have beneficial effects

CO[C@H]1/C=C/O[C@@]2(C)Oc3c(C)c(O)c4c(O)c(c(/C=N/N5CCN(C)CC5)c(O)c4c3C2=O)NC(=O)/C(C)=C\C=C\[C@H](C)[C@H](O)[C@@H](C)[C@@H](O)[C@@H](C)[C@H](OC(C)=O)[C@@H]1C [rifampin]
effects on cognition or function in AD (AD patients): no beneficial effects

Solanezumab: intravenous amyloid immunotherapy; humanized monoclonal antibody to soluble amyloid protein
outcome of amyloid immunotherapy in AD (soluble amyloid protein): failure
